Measured values taken from ChEMBL document CHEMBL1201862, “PubChem BioAssay data set” (2004).
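Briefly, cells in 96-well plates were exposed to five compound concentrations for 48 h, and endpoints were estimated by linear interpolation. Abbreviation: GI50, concentration required for 50% inhibition of growth.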 Activity calls are given as the source filed them. Rule as the data show it: active = GI50 up to about 1.1 µM and inactive = higher.

What was measured:
Experiment in all cases: NCI-60 cell line screen, 48 h
KM12 = test system: KM12
HOP-92 = test system: HOP-92
MOLT-4 = test system: MOLT-4
M14 = test system: M14
A498 = test system: A498
SK-MEL-28 = test system: SK-MEL-28
SK-MEL-5 = test system: SK-MEL-5
OVCAR-8 = test system: OVCAR-8
SF-295 = test system: SF-295
COLO 205 = test system: COLO 205
HL-60 = test system: HL-60
IGROV-1 = test system: IGROV-1
EKVX = test system: EKVX
BT-549 = test system: BT-549
SF-268 = test system: SF-268
PC-3 = test system: PC-3
SK-OV-3 = test system: SK-OV-3
Malme-3M = test system: Malme-3M
NCI-H226 = test system: NCI-H226
SF-539 = test system: SF-539

Measured: GI50

CC(C)CC1c2[nH]c3ccccc3c2C[C@H]2C(=O)NC(CCC(=O)OC(C)(C)C)C(=O)N12 (stereo partly specified)
inactive: KM12 40.6 µM | HOP-92 27.5 µM | MOLT-4 22.6 µM | M14 36.7 µM | A498 40.4 µM | SK-MEL-28 52.1 µM | SK-MEL-5 25.9 µM | OVCAR-8 39.3 µM | SF-295 19.4 µM | COLO 205 20.6 µM | HL-60 28.1 µM | IGROV-1 33.5 µM | EKVX 35.2 µM | BT-549 33.5 µM | SF-268 27.4 µM | PC-3 23.4 µM | SK-OV-3 42.5 µM | Malme-3M 24.4 µM | NCI-H226 49.7 µM

O=C(NCCCCCCCN1CCCCCCC1)C(C1CCCCC1)C1CCCCC1
inactive: KM12 6.75 µM | HOP-92 9.06 µM | MOLT-4 1.19 µM | M14 2.01 µM | A498 5.83 µM | SK-MEL-28 6.08 µM | SK-MEL-5 2.42 µM | OVCAR-8 12.3 µM | SF-295 11.4 µM | COLO 205 2.81 µM | HL-60 5.14 µM | IGROV-1 12.3 µM | EKVX 4.4 µM | BT-549 14.3 µM | SF-539 11.2 µM | SF-268 15.8 µM | PC-3 8.57 µM | SK-OV-3 11.3 µM | Malme-3M 3.34 µM | NCI-H226 9.42 µM

CC(C)(C)C1=CC(=C(c2ccc(-c3c4nc(c(-c5ccc(C(=C6C=C(C(C)(C)C)C(=O)C(C(C)(C)C)=C6)c6cc(C(C)(C)C)c(O)c(C(C)(C)C)c6)cc5)c5ccc([nH]5)c(-c5ccc(C(=C6C=C(C(C)(C)C)C(=O)C(C(C)(C)C)=C6)c6cc(C(C)(C)C)c(O)c(C(C)(C)C)c6)cc5)c5nc(c(-c6ccc(C(=C7C=C(C(C)(C)C)C(=O)C(C(C)(C)C)=C7)c7cc(C(C)(C)C)c(O)c(C(C)(C)C)c7)cc6)c6ccc3[nH]6)C=C5)C=C4)cc2)c2cc(C(C)(C)C)c(O)c(C(C)(C)C)c2)C=C(C(C)(C)C)C1=O
inactive: KM12 > 100 µM | HOP-92 > 100 µM | MOLT-4 > 100 µM | M14 > 100 µM | A498 > 100 µM | SK-MEL-28 > 100 µM | SK-MEL-5 > 100 µM | OVCAR-8 > 100 µM | SF-295 > 100 µM | COLO 205 > 100 µM | HL-60 > 100 µM | IGROV-1 > 100 µM | EKVX > 100 µM | BT-549 > 100 µM | SF-539 > 100 µM | SF-268 > 100 µM | PC-3 > 100 µM | SK-OV-3 > 100 µM | Malme-3M > 100 µM | NCI-H226 > 100 µM

COc1cccc2c1OC(c1ccc(C#N)cc1)C([N+](=O)[O-])=C2 (stereo unspecified)
inactive: HOP-92 1.62 µM | M14 1.78 µM | A498 1.84 µM | SK-MEL-28 2.28 µM | SK-MEL-5 1.53 µM | OVCAR-8 1.25 µM | SF-295 6.14 µM | COLO 205 1.74 µM | HL-60 1.41 µM | IGROV-1 1.92 µM | EKVX 6.24 µM | BT-549 1.49 µM | SF-539 1.91 µM | SF-268 4.12 µM | PC-3 1.88 µM | SK-OV-3 3.23 µM | Malme-3M 1.61 µM | NCI-H226 2.98 µM

Nc1ccc(Oc2ccc(C34CC5CC(C3)CC(c3ccc(Oc6ccc(N)cc6)cc3)(C5)C4)cc2)cc1
inactive: KM12 7.67 µM | HOP-92 6.05 µM | M14 10.4 µM | A498 12 µM | SK-MEL-28 18.9 µM | SK-MEL-5 12.6 µM | OVCAR-8 5.26 µM | SF-295 10.3 µM | COLO 205 14.5 µM | HL-60 > 41.3 µM | IGROV-1 5.38 µM | EKVX 25.4 µM | BT-549 8.69 µM | SF-539 13.7 µM | SF-268 9.66 µM | PC-3 6.28 µM | SK-OV-3 22.2 µM | Malme-3M 11.6 µM | NCI-H226 26.5 µM

NC(=O)NNCc1c(-c2ccccc2)no[n+]1[O-]
inactive: KM12 > 100 µM | HOP-92 > 100 µM | MOLT-4 > 100 µM | M14 > 100 µM | A498 > 100 µM | SK-MEL-28 > 100 µM | SK-MEL-5 > 100 µM | OVCAR-8 > 100 µM | SF-295 > 100 µM | COLO 205 > 100 µM | HL-60 > 100 µM | IGROV-1 > 100 µM | EKVX > 100 µM | BT-549 > 100 µM | SF-539 > 100 µM | SF-268 > 100 µM | PC-3 > 100 µM | SK-OV-3 > 100 µM | Malme-3M > 100 µM | NCI-H226 > 100 µM
